Measurements from US4769369A, “Anti-allergy 1(2H)-phthalazinones” (Pennwalt Corporation, priority 1986, dated 1988).
Structures can show the parent of a compound that is named as a salt.

What was measured:
[1] = system: serotonin; assay: Rat Allergic Mediator Induced Dermal Vascular Permeability Test, serotonin challenge; format: in vivo
Description: (§1) Ten minutes later, the animals are challenged by intradermally injecting 0.1 ml of a water solution of either serotonin (1 μg/ml), histamine (20 μg/ml) or bradykinin (10 μg/ml) into separate sites on the back. Five minutes following challenge the animals are killed, the skin retracted, and the mean diameter of the blue wheal and flare reaction is calculated as the difference in mean diameter between a saline control and the drug treated group, divided by the control diameter, and then multiplied times 100. Statistical analysis of the data is done using a Student T-test program. See Tables 4 (ip administration of test compound) and 5 (po administration of test compound) for results obtained with the rat allergic mediator induced dermal vascular permeability test. (Set: Serotonin; His: histamine; Bk: bradykinin)

[2] = system: bradykinin; assay: Rat Allergic Mediator Induced Dermal Vascular Permeability Test, bradykinin challenge; format: in vivo
Description: as §1

[3] = system: LTC4 induced contractions of the guinea pig ileum; assay: Guinea Pig Ileum Test: inhibition of LTC4-induced guinea pig smooth muscle contractions; format: cell-based; settings: Cavia porcellus, 6 nanomoles LTC4
Description: Four replicate, small pieces of guinea pig ileum were suspended in Kreb's physiological salt solution in a 10 ml tissue bath to a gram tension of approximately 1.0. These pieces of tissue were then chemically stimulated with 6 microliters of purified leukotriene C4 (LTC4) yielding a final concentration in the bath of 6 nanomoles. Responses (tissue contraction) were measured isometrically using a Harvard transducer and a Beckman recorder. Upon addition of the LTC4, the tissue was allowed to sit for approximately 15-30 minutes to reach maximal stimulation. The test compound dissolved in a maximum volume of 100 microliters of either saline, dimethylsulfoxide or ethanol was then added to the tissue preparation and the change in gram tension was recorded.

[4] = system: Active Anaphylaxis Response in Male, Sprague Dawley Rats; assay: Rat Anaphylaxis Test (active anaphylaxis, paw edema); format: in vivo; settings: for Paw Volume Mean ± S.E.: in mmHg (unit assumed)
Description: In the rat anaphylaxis test, groups consisting of 15-20 rats are intraperitoneally sensitized on day zero with 500 μg of bovine serum albumin-absorbed alum admixed with 2×10^10 killed Bordatella pertussis vaccine organisms. Fourteen days later, the test compound suspended in 0.5 to 1.0 ml of 1% Cleargel or saline (0.85% NaCl in H2 O) is administered ip or po and, one hour later, the right hind paw is injected subcutaneously with 100 μg of bovine serum albumin dissolved in 0.1 ml of saline. The paw volume is measured using a mercury plethysmometer prior to drug administration and 90 minutes post antigenic challenge. The present inhibition of edema is calculated as the difference in volume between the control and drug treated groups, divided by the control volume, and then multiplied times 100. The positive control drug, theophylline (90 mg/kg, po) is included in each assay. Statistical analysis of the data is done using an analysis of variance program. See Tables 2 and 3 for results obtained with this test.
In Tables 2 and 3, and elsewhere in this application, PR 948-257C stands for trans-6-[2-(4-methoxyphenyl)ethenyl]-2-[3-(dimethylamino)propyl]-phthalazin-1(2H)-one hydrobromide.

[5] = system: histamine; assay: Rat Allergic Mediator Induced Dermal Vascular Permeability Test, histamine challenge; format: in vivo
Description: as §1, with “See Tables 4 (ip administration of test compound) and 5 (po administration of test compound) for results obtained with the rat allergic mediator induced dermal vascular permeability test.” left out

[6] = Table 4 (ip administration of test compound), 1 mg/kg
[7] = Table 5 (po administration of test compound), 1 mg/kg
[8] = Table 2, first group set, 90 mg/kg po, N 17
[9] = Table 2, second group set, 90 mg/kg po, N 20
[10] = Table 2, third group set, 90 mg/kg po, N 29
[11] = Table 2, first group set, 50 mg/kg ip
[12] = Table 2, first group set, 75 mg/kg ip
[13] = Table 2, first group set, 100 mg/kg ip
[14] = Table 2, second group set, 6.25 mg/kg ip
[15] = Table 2, second group set, 12.5 mg/kg ip
[16] = Table 2, second group set, 25 mg/kg ip
[17] = Table 2, third group set, 2.5 mg/kg ip
[18] = Table 2, third group set, 4 mg/kg ip
[19] = Table 2, third group set, 6 mg/kg ip

CN1CCC(=C2c3ccccc3C=Cc3ccccc32)CC1 [Cyproheptadine, cyproheptadine, reference compound]
% Inhibition, Ser [1, 6]: 74.8% | Wheal Measurement, Ser [1, 6]: 2.8 mm | % Inhibition, Ser [1, 7]: 95.1% | Wheal Measurement, Ser [1, 7]: 0.5 mm | % Inhibition, Bk [2, 6]: 60.6% | Wheal Measurement, Bk [2, 6]: 4.3 mm | % Inhibition, Bk [2, 7]: 86.8% | Wheal Measurement, Bk [2, 7]: 1.2 mm

COc1ccc(/C=C/c2ccc3c(=O)n(CCCCN(C)C)ncc3c2)cc1 [Example IX, Trans-6-[2-(4-methoxyphenyl)ethenyl]-2-[4-dimethylamino)butyl]phthalazin-1(2H)-one bromide]
IC50 [3]: 10 µM

CN(C)CCn1ncc2cc(/C=C/c3ccc(O)cc3)ccc2c1=O [Example XIV, Trans-6-[2-(4-Hydroxyphenyl)ethenyl]-2-(2-dimethylaminoethyl)-1(2H)-phthalazinone hydrochloride]
IC50 [3]: 31.6 µM

COc1ccc(/C=C/c2ccc3c(=O)n(CCCN4CCCCC4)ncc3c2)cc1 [Example II, Trans-6-[2-(4-methoxyphenyl)ethenyl]-2-(3-piperidinopropyl)phthalazin-1(2H)-one hydrobromide]
IC50 [3]: 3.4 µM

COc1ccc(/C=C/c2ccc3c(=O)n(CCN(C)C)ncc3c2)cc1 [Example III, Trans-6-[2-(4-methoxyphenyl)ethenyl]-2-[2-(dimethylamino)ethyl]-phthalazin-1(2H)-one hydrobromide]
IC50 [3]: 16.6 µM

Cn1c(=O)c2[nH]cnc2n(C)c1=O [Theophylline, theophylline, reference compound]
% Inhibition [4, 8]: 76% | Paw Volume Mean ± S.E. [4, 8]: 0.9 ± 0.7 | % Inhibition [4, 9]: 92% | Paw Volume Mean ± S.E. [4, 9]: 0.4 ± 0.6 | % Inhibition [4, 10]: 87% | Paw Volume Mean ± S.E. [4, 10]: 0.5 ± 0.5 | % Inhibition ([4]; Table 3, 90 mg/kg po): 82% | Paw Volume ± S.E. ([4]; Table 3, 90 mg/kg po): 0.65 ± .2 mm of Hg

COc1ccc(/C=C/c2ccc3c(=O)n(CCN4CCOCC4)ncc3c2)cc1 [Example IV, Trans-6-[2-(4-methoxyphenyl)ethenyl]-2-(2-morpholinoethyl)phthalazin-1(2H)-one hydrobromide]
IC50 [3]: 0.1 µM

COc1ccc(CCc2ccc3c(=O)n(CCCN(C)C)ncc3c2)cc1 [Example VI, 6-[2-(4-methoxyphenyl)ethyl]-2-[3-(dimethylamino)propyl]phthalazin-1(2H)-on]
IC50 [3]: 16.8 µM

CSc1ccc(/C=C/c2ccc3c(=O)n(CCCN(C)C)ncc3c2)cc1 [Example XI, Trans-6-[2-[4-(methylthio)phenyl]ethenyl]-2-[3-(dimethylamino)propyl]phthalazin-1(2H)-one]
IC50 [3]: 10 µM

COc1ccc(/C=C\c2ccc3c(=O)n(CCCN(C)C)ncc3c2)cc1 [Example X, Cis-6-[2-(4-methoxyphenyl)ethenyl]-2-[3-dimethylaminopropyl]phthalazin-1(2H)-one cyclohexylsulfamate]
IC50 [3]: 10.5 µM

Br.COc1ccc(/C=C/c2ccc3c(=O)n(CCCN(C)C)ncc3c2)cc1 [Example XII, Trans-6-[2-(4-methoxyphenyl)ethenyl]-2-[3-(dimethylamino)propyl]-phthalazin-1(2H)-one hydrobromide]
% Inhibition, Ser ([1]; Table 4, 12.5 mg/kg ip): 26.1% | Wheal Measurement, Ser ([1]; Table 4, 12.5 mg/kg ip): 8.2 mm | % Inhibition, Ser ([1]; Table 4, 25 mg/kg ip): 51.4% | Wheal Measurement, Ser ([1]; Table 4, 25 mg/kg ip): 5.4 mm | % Inhibition, Ser ([1]; Table 4, 50 mg/kg ip): 68.5% | Wheal Measurement, Ser ([1]; Table 4, 50 mg/kg ip): 3.5 mm | % Inhibition, Ser ([1]; Table 5, 12.5 mg/kg po): 23.3% | Wheal Measurement, Ser ([1]; Table 5, 12.5 mg/kg po): 7.9 mm | % Inhibition, Ser ([1]; Table 5, 25 mg/kg po): 42.7% | Wheal Measurement, Ser ([1]; Table 5, 25 mg/kg po): 5.9 mm | % Inhibition, Ser ([1]; Table 5, 50 mg/kg po): 61.1% | Wheal Measurement, Ser ([1]; Table 5, 50 mg/kg po): 4.0 mm | % Inhibition, His ([5]; Table 4, 12.5 mg/kg ip): 26.8% | Wheal Measurement, His ([5]; Table 4, 12.5 mg/kg ip): 8.2 mm | % Inhibition, His ([5]; Table 4, 25 mg/kg ip): 50.0% | Wheal Measurement, His ([5]; Table 4, 25 mg/kg ip): 5.6 mm | % Inhibition, His ([5]; Table 4, 50 mg/kg ip): 75.9% | Wheal Measurement, His ([5]; Table 4, 50 mg/kg ip): 2.7 mm | % Inhibition, His ([5]; Table 5, 12.5 mg/kg po): 17% | Wheal Measurement, His ([5]; Table 5, 12.5 mg/kg po): 8.3 mm | % Inhibition, His ([5]; Table 5, 25 mg/kg po): 57% | Wheal Measurement, His ([5]; Table 5, 25 mg/kg po): 4.3 mm | % Inhibition, His ([5]; Table 5, 50 mg/kg po): 71% | Wheal Measurement, His ([5]; Table 5, 50 mg/kg po): 2.9 mm | % Inhibition, Bk ([2]; Table 4, 12.5 mg/kg ip): 32.1% | Wheal Measurement, Bk ([2]; Table 4, 12.5 mg/kg ip): 7.4 mm | % Inhibition, Bk ([2]; Table 4, 25 mg/kg ip): 47.7% | Wheal Measurement, Bk ([2]; Table 4, 25 mg/kg ip): 5.7 mm | % Inhibition, Bk ([2]; Table 4, 50 mg/kg ip): 74.3% | Wheal Measurement, Bk ([2]; Table 4, 50 mg/kg ip): 2.8 mm | % Inhibition, Bk ([2]; Table 5, 12.5 mg/kg po): 12.1% | Wheal Measurement, Bk ([2]; Table 5, 12.5 mg/kg po): 8.0 mm | % Inhibition, Bk ([2]; Table 5, 25 mg/kg po): 48.4% | Wheal Measurement, Bk ([2]; Table 5, 25 mg/kg po): 4.7 mm | % Inhibition, Bk ([2]; Table 5, 50 mg/kg po): 63.8% | Wheal Measurement, Bk ([2]; Table 5, 50 mg/kg po): 3.3 mm | IC50 [3]: 13.6 µM | % Inhibition [4, 11]: 56% | Paw Volume Mean ± S.E. [4, 11]: 1.7 ± 1.3 | % Inhibition [4, 12]: 83% | Paw Volume Mean ± S.E. [4, 12]: 0.7 ± 0.8 | % Inhibition [4, 13]: 91% | Paw Volume Mean ± S.E. [4, 13]: 0.4 ± 0.8 | % Inhibition [4, 14]: 48% | Paw Volume Mean ± S.E. [4, 14]: 2.2 ± 1.9 | % Inhibition [4, 15]: 52% | Paw Volume Mean ± S.E. [4, 15]: 2.1 ± 1.8 | % Inhibition [4, 16]: 55% | Paw Volume Mean ± S.E. [4, 16]: 1.9 ± 1.4 | % Inhibition [4, 17]: +11% | Paw Volume Mean ± S.E. [4, 17]: 4.7 ± 2.8 | % Inhibition [4, 18]: +14% | Paw Volume Mean ± S.E. [4, 18]: 4.9 ± 2.3 | % Inhibition [4, 19]: 12% | Paw Volume Mean ± S.E. [4, 19]: 3.7 ± 2.6 | % Inhibition ([4]; Table 3, 50 mg/kg po): 14% | Paw Volume ± S.E. ([4]; Table 3, 50 mg/kg po): 3.10 ± .55 mm of Hg | % Inhibition ([4]; Table 3, 75 mg/kg po): 37% | Paw Volume ± S.E. ([4]; Table 3, 75 mg/kg po): 2.26 ± .32 mm of Hg | % Inhibition ([4]; Table 3, 100 mg/kg po): 54% | Paw Volume ± S.E. ([4]; Table 3, 100 mg/kg po): 1.65 ± .36 mm of Hg
